In article PMC9354638, “Targeting p21-activated kinase 4 (PAK4) with pyrazolo[3,4-d]pyrimidine derivative SPA7012 attenuates hepatic ischaemia-reperfusion injury in mice” (Journal of Enzyme Inhibition and Medicinal Chemistry, 2022):

How the values were obtained:
Format in all cases: biochemical
[1] = target: T1, PAK3 (Homo sapiens, UniProt O75914); experiment: HotSpot kinase assay, PAK subtype selectivity; conditions: relative percentage inhibition at 20 μM with staurosporine
T1 construct: purchased Reaction Biology Corporation (Malvern, PA, USA)
T1 sequence (O75914 whole entry): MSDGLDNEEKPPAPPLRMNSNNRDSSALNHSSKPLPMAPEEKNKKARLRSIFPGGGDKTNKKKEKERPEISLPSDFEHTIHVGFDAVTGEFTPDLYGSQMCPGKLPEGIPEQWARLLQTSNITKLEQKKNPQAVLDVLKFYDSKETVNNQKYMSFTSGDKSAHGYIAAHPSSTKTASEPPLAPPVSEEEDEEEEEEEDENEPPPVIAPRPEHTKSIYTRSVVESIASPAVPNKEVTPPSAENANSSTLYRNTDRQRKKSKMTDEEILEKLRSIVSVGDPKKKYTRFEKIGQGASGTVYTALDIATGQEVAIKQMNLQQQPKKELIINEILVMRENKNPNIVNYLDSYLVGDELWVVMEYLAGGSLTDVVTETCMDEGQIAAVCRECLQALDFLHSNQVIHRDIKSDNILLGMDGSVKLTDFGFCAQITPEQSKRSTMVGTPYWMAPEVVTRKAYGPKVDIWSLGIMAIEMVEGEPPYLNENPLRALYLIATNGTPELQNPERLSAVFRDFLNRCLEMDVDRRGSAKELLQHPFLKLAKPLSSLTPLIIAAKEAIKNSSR
Procedure: (§1) To examine the enzyme activity, HotSpot kinase assay was performed at Reaction Biology Corporation (Malvern, PA, USA). The kinase and substrate pairs were prepared in reaction buffer: 20 mM HEPES at pH 7.5, 10 mM MgCl2, 1 mM EGTA, 0.02% Brij 35, 0.02 mg/mL BSA, 0.1 mM Na3VO4, 2 mM DTT, and 1% DMSO. Compounds were added into the kinase reaction mixture and incubated for 20 min. Then, ^32 P-ATP was introduced to the mixture to initiate the reaction carried out at 10 μM of ATP concentration. After 2 h at room temperature, the mixture was spotted onto P81 ion exchange paper and kinase activity was then evaluated utilising the filter-binding method. Compounds were tested for single dose enzyme inhibition at a concentration of 20 μM. For the control compound, staurosporine was tested in a 10-dose IC50 mode. To determine the IC50 value, the compounds were tested for 10-doses with 3-fold serial dilution starting at 100 μM.
(§2) Synthesised compounds were evaluated for their in vitro PAK4 enzyme inhibitory activities. In vitro kinase assays were performed using HotSpot kinase assays for relative enzyme inhibitory activity at a single concentration (20 μM) and IC50 assessment at an ATP concentration of 10 μM (Figure 1(B)). […] For the allosteric pocket binder, cyclohexyl group (SPA7012) was preferable to the smaller dimethyl (SPA7011) or hydroxymethyl group (SPA7013), and the aromatic ring (SPA7014) reduced activity compared to the saturated ring (SPA7012). In vitro enzyme IC50 values appeared in the order of SPA7012, SPA7017, and SPA7016. […] Molecular docking analysis was performed on the human PAK4 catalytic domain structure complexed with GNE-2861 (PDB code: 4O0V). The binding pose of SPA7012 overlapped well with the crystal structure of GNE-2861, with the allosteric binder properly positioned in the specific back pocket. The oxygen atom in the tertiary alcohol of the hydrophobic allosteric binder formed hydrogen bonds with the backbone of Phe459 and the side chain of Glu366 (Figure 1(D)). The amine group and nitrogen atom in the pyrazolo[3,4-d]pyrimidine core scaffold also formed hydrogen bonds with Lue398 at the hinge region. Finally, SPA7012 was decided as a lead compound for further examination with satisfactory potency and subtype selectivity.

[2] = target: T2, PAK6 (Homo sapiens, UniProt Q9NQU5); experiment: HotSpot kinase assay, PAK subtype selectivity; conditions: relative percentage inhibition at 20 μM with staurosporine
T2 construct: purchased Reaction Biology Corporation (Malvern, PA, USA)
T2 sequence (Q9NQU5 whole entry): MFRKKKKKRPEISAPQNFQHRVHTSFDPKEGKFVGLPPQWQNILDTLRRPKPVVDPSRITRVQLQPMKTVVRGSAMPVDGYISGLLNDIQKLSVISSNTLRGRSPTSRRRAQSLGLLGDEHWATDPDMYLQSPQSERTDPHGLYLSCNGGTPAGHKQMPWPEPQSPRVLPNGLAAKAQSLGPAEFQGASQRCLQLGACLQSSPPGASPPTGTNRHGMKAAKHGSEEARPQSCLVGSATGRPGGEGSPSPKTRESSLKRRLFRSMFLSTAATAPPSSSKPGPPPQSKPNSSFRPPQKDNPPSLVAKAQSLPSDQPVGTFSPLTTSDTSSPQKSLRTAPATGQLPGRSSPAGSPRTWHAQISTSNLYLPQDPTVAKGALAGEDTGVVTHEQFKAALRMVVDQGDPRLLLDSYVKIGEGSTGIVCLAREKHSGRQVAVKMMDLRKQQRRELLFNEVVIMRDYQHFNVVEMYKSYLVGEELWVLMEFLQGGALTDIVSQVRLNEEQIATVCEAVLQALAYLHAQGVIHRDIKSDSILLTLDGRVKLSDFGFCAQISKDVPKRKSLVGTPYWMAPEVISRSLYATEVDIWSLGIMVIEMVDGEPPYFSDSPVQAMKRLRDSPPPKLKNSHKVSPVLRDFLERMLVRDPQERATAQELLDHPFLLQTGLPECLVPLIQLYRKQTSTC
Procedure: as §1, §2

[3] = target: T3, PAK1 (Homo sapiens, UniProt Q13153); experiment: HotSpot kinase assay, PAK subtype selectivity; conditions: relative percentage inhibition at 20 μM with staurosporine
T3 construct: purchased Reaction Biology Corporation (Malvern, PA, USA)
T3 sequence (Q13153 whole entry): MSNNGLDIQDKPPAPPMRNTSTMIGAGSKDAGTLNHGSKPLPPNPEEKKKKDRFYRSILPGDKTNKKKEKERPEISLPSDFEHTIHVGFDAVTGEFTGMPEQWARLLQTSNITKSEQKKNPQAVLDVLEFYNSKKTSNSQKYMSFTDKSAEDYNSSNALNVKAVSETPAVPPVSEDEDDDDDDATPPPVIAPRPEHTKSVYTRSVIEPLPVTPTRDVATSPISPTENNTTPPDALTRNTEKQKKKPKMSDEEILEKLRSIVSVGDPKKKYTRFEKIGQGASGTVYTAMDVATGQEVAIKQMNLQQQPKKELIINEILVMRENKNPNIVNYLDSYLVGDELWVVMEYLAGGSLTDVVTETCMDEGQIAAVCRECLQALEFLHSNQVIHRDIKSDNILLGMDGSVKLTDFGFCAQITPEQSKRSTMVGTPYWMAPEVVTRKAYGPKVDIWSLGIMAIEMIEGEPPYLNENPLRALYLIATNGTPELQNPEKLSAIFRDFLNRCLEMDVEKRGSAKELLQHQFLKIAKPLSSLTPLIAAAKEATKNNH
Procedure: as §1, §2

[4] = target: T4, PAK2 (Homo sapiens, UniProt Q13177); experiment: HotSpot kinase assay, PAK subtype selectivity; conditions: relative percentage inhibition at 20 μM with staurosporine
T4 construct: purchased Reaction Biology Corporation (Malvern, PA, USA)
T4 sequence (Q13177 whole entry): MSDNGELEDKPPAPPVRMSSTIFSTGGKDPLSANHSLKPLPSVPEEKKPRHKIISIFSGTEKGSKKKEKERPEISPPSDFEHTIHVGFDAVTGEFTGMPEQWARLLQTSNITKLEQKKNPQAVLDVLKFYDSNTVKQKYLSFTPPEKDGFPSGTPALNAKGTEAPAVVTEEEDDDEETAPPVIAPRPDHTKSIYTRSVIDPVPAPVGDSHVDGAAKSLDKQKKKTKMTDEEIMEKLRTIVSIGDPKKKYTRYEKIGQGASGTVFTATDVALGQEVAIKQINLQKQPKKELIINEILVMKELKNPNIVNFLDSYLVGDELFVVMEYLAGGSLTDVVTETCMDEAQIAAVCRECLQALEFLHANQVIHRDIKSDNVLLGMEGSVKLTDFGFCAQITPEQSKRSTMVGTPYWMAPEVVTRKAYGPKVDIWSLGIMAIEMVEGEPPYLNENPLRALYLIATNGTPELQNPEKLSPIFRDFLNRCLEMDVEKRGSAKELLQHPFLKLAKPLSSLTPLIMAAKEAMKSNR
Procedure: as §1, §2

[5] = target: T5, PAK5 (Homo sapiens, UniProt Q9P286); experiment: HotSpot kinase assay, PAK subtype selectivity
T5 construct: purchased Reaction Biology Corporation (Malvern, PA, USA)
T5 sequence (Q9P286 whole entry): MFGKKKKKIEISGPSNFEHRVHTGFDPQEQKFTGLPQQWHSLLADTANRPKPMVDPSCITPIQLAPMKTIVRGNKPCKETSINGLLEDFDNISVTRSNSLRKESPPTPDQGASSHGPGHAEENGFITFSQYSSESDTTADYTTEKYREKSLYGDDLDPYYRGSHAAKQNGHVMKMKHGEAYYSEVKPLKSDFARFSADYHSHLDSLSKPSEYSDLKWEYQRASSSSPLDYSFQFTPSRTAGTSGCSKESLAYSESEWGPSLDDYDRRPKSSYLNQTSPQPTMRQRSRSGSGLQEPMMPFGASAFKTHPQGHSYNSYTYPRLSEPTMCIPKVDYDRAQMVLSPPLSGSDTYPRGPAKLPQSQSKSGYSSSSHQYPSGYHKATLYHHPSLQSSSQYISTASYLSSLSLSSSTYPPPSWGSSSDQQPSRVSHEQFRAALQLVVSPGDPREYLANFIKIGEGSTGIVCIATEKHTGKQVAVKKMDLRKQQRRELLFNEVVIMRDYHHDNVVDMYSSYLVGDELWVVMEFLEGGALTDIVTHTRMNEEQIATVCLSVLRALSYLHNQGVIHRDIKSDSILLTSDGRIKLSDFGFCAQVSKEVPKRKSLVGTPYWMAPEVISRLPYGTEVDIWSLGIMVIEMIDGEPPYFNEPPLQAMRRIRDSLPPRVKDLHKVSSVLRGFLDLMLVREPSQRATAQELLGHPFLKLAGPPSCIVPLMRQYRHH
Procedure: as §1, §2

[6] = target: T6, PAK4 (Homo sapiens, UniProt O96013); experiment: HotSpot kinase assay (Reaction Biology Corp.), PAK4 enzyme inhibition; conditions: ATP 10 μM
T6 construct: purchased Reaction Biology Corporation (Malvern, PA, USA)
T6 sequence (O96013 whole entry): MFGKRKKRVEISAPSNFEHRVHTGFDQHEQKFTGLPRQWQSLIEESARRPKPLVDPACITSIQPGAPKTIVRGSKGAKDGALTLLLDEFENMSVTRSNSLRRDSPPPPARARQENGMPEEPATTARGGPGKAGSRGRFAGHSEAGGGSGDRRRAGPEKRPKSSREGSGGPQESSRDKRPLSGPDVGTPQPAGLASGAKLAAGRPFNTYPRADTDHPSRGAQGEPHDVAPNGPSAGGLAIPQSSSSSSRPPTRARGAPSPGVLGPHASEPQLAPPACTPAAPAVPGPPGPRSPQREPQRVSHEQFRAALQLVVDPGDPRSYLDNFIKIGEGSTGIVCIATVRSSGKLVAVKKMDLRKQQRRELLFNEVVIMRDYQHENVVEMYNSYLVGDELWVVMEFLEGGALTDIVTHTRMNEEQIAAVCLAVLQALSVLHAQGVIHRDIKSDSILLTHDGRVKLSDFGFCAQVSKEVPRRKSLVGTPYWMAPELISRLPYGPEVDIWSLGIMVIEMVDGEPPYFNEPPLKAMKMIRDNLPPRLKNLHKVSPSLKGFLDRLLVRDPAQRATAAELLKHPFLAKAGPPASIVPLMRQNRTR
Procedure: as §1, §2

- PAK3 % inhibitory activity [1]: 5%
- PAK6 % inhibitory activity [2]: 36%
- PAK1 % inhibitory activity [3]: 16%
- PAK2 % inhibitory activity [4]: 36%
- IC50 ([5]; HotSpot kinase assay): > 100000 nM
- PAK5 % inhibitory activity ([5]; relative percentage inhibition at 20 μM with staurosporine): 52%
- IC50 ([6]; 10-dose, 3-fold serial dilution starting at 100 μM): 770 nM
- inhibition at 20 µM ([6]; relative percentage inhibition at 20 μM of compounds with staurosporine, read-out: PAK4 enzyme inhibition % inhibitory activity): 97%
Structure (SMILES): Cc1nn(-c2cccc(C#CC3(O)CCCCC3)c2)c2ncnc(N)c12 [Compound 14b, 3-(4-Amino-3-methylpyrazolo[3,4-d]pyrimidin-1-yl)phenylethynylcyclohexan-1-ol]
